Data set [1] is described as follows: loss of crystal water on drying. The data set is classed as physicochemical. Conditions: 50° C. under vacuum of around 60 mm/Hg for a couple of hours; theoretical water 2.43%. The text has this:
Levofloxacin hemihydrate contains a theoretical amount of water of 2.43%.

For data set [2] the following is noted: hemihydrate compared with monohydrate; cited from earlier work.
The conditions of data set [3]: cited from earlier work.
The subject of data set [4] is gram-positive and gram-negative bacteria. Conditions: cited from earlier work.

Structures are written as SMILES. Like-named read-outs stand apart in the source and are kept apart here.

On to `C[C@H]1COc2c(N3CCN(C)CC3)c(F)cc3c(=O)c(C(=O)O)cn1c23` [Levofloxacin hemihydrate, (−)-(S)-9-fluoro-3-methyl-10-(4-methyl-1-piperazinyl)-7-oxo-2,3-dihydro-7H-pyrido-[1,2,3-de] [1,4] benzoxazine-6-carboxylic acid hemihydrate], for which, in data set [1], the “water lost by drying” value was 0.20-0.30%. In data set [2], the “phase stability as a drug substance” value was “superior to the monohydrate”. Moreover, the “drying temperature at which crystal water is lost (anhydrous form results)” value in data set [3] (under atmospheric pressure) is “around 70 °C”; in data set [3] (under reduced pressure), “around 60 °C”.
`C[C@H]1COc2c(N3CCN(C)CC3)c(F)cc3c(=O)c(C(=O)O)cn1c23` [Levofloxacin, (S)-9-fluoro-3-methyl-10-(4-methyl-1-piperazinyl)-7-oxo-2,3-dihydro-7H-pyrido-[1,2,3-de][1,4]benzoxazine-6-carboxylic acid]: the “potency in inhibiting the multiplication of bacteria relative to its (+)-enantiomer” value in data set [4] (gram-positive and gram-negative bacteria, versus (+)-enantiomer) is reported as 8-128 times. For the same compound, in data set [4] (versus racemate), the “activity relative to its racemate, ofloxacine” value was “approximately 2 times”.

The values above are taken from patent US7964723B2, “And practical process for exclusively producing (S)-9-fluoro-3-methyl-10-(4-methyl-1-piperazinyl)-7-oxo-2,3-dihydro-7H-pyrido-[1,2,3,de][1,4]benzoxazine-6-carboxylic acid hemihydrate” (Apeloa-Kangyu, priority 2008, dated 2011).
